{"source": "patent US20240091220A1", "about": "“METHODS OF MODULATING NEURONAL AND OLIGODENDROCYTE SURVIVAL” (priority 2021, published 2024)", "key": {"[1]": {"test_system": "reactive ACM-mediated toxicity", "conditions": "previous data, Liddelow et al. 2017; cited from earlier work"}, "oligodendrocytes [2]": {"test_system": "oligodendrocytes", "conditions": "dose curve, live/dead analysis 24 hours after treatment", "quoted_text": "Oligodendrocytes: Oligodendrocyte lineage cells were purified by immunopanning from P6 Sprague-Dawley forebrains and cultured as previously described (Dugas and Emery, “Purification of Oligodendrocyte Precursor Cells from Rat Cortices by Immunopanning,” Cold Spring Harbor Protocols 2013(8):745-758 (2013), which is hereby incorporated by reference in its entirety). Cortices were blunt dissected and enzymatically digested using papain at 37° C. and 10% CO2. Tissue was then mechanically triturated with a 5 mL serological pipette at room temperature to generate a single-cell suspension. […]\nAll experiments began with identically plated cells that were randomly chosen for treatment, ensuring identical starting cell numbers for control and experimental conditions. […] Identical acquisition and illumination conditions were used within each experiment and cells were counted in ImageJ using custom macros, which involved background subtraction and thresholding following by particle counting. […]"}, "oligodendrocytes [3]": {"test_system": "oligodendrocytes", "assay": "Oligodendrocyte live/dead survival with ethoxyquin, with or without reactive ACM", "assay_type": "cell-based, rat", "conditions": "for Slope of simple linear regression of oligodendrocyte survival on ethoxyquin dose: increasing doses of ethoxyquin in DMSO", "procedure": "For collection of astrocyte conditioned media, plates of astrocyte cultures from identical preps were randomly chosen as control or reactive. Reactive astrocyte cultures were treated for 24 hours with IL1α (3 ng/ml, Sigma, 13901), TNF (30 ng/ml, Cell Signaling Technology, 8902SF), and C1q (400 ng/ml, MyBioSource, MBS143105). Control and reactive astrocyte conditioned media (ACM) was collected and spun at ˜2000 g for 5 minutes to remove any dead cells or cell debris. ACM was then concentrated in a Vivaspin 30 kDa centrifugation tubes (Cytiva 28932361) to ˜10× concentration for subsequent experiments. The protein concentration of ACM was determined by Bradford Assay (Sigma-B6916) and used to ensure identical concentrations of reactive versus control ACM were used for further experiments. ACM was presented at a dose of 50 μg/ml in all experiments not otherwise denoted with an alternative concentration.\nZ1 (Zeiss) or on an Incucyte ZOOM (Essen Bioscience)."}}, "note": "“Also recorded” adds a separate entry of the source.", "data": [{"smiles": "CCOC(=O)c1ccc(NC2CCCCC2)c(N)c1", "note": "[Ferrostatin-1]", "values": [{"measurement": "Effect on reactive ACM-mediated (astrocyte) toxicity", "setting": "[1]", "result": "does not affect; also recorded: has no effect"}]}, {"smiles": "CCCCCCCCCCCCCCCCCCCC(=O)OC[C@H](COP(=O)([O-])OCC[N+](C)(C)C)OC(=O)CCCCCCCCCCCCCCCCCCC", "note": "[phosphatidylcholines (20:0)]", "values": [{"measurement": "Toxicity to oligodendrocytes (survival)", "setting": "oligodendrocytes [2]", "result": "toxic to oligodendrocytes in a dose-dependent fashion"}]}, {"smiles": "CCOc1ccc2c(c1)C(C)=CC(C)(C)N2", "note": "[ethoxyquin]", "values": [{"measurement": "Slope of simple linear regression of oligodendrocyte survival on ethoxyquin dose", "setting": "oligodendrocytes [3]; with 30 μg/ml reactive ACM", "result": "−0.000001788"}, {"measurement": "Slope of simple linear regression of oligodendrocyte survival on ethoxyquin dose", "setting": "oligodendrocytes [3]; without reactive ACM", "result": "−0.0000025"}, {"measurement": "Effect on toxicity of reactive ACM to oligodendrocytes", "setting": "oligodendrocytes [3]; with reactive ACM", "result": "had no effect; also recorded: did not impact the toxicity of reactive ACM"}, {"measurement": "Effect on oligodendrocyte survival when treated in isolation", "setting": "oligodendrocytes [3]; without reactive ACM", "result": "did not impact cell survival"}]}]}
